# From ChEMBL document CHEMBL5465560, “Selectivity Literature for EUbOPEN Chemogenomic Library” (2024)
# Columns and labels:
# [1] = target: Casein kinase I isoform epsilon (Homo sapiens, UniProt P49674); assay: Selectivity interaction (KinomeScan (DiscoverX)) EUB0000092b CSNK1E; settings: at 10 µM
# [2] = target: T1, Ephrin type-B receptor 1 (Homo sapiens) (UniProt P54762); assay: Selectivity interaction (KinomeScan (DiscoverX)) EUB0000092b EPHB1; settings: at 10 µM
# T1 sequence (whole entry): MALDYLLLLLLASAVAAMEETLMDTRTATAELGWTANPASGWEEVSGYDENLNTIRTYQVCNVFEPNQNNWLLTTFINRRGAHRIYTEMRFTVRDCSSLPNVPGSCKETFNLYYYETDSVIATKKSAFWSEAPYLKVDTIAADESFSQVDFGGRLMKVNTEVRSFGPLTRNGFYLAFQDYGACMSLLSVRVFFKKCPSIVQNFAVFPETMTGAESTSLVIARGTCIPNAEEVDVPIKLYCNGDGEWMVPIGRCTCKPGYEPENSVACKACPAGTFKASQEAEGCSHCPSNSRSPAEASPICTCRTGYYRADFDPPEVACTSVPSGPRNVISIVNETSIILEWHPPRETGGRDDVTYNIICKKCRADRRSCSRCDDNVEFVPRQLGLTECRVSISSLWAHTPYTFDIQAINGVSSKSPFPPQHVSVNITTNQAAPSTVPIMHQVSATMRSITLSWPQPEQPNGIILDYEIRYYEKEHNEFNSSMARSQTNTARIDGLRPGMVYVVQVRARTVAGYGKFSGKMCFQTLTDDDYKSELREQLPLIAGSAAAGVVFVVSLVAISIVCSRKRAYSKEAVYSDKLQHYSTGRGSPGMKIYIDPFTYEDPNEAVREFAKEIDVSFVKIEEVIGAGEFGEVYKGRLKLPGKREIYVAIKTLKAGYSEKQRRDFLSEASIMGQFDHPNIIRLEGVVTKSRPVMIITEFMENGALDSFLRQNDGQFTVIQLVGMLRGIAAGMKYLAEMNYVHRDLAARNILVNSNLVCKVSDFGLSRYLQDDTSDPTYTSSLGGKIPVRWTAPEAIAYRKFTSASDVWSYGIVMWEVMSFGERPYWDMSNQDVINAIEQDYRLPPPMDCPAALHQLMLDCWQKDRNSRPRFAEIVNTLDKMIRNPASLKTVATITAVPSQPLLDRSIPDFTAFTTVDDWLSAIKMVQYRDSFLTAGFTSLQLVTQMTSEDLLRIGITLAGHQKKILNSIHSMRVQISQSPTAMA
# [3] = target: Tyrosine-protein kinase Yes (Homo sapiens) (UniProt P07947); assay: Selectivity interaction (Upstate Kinase Profiler service (Millipore)) EUB0000056c YES1; settings: at 1 µM
# [4] = target: T2, cAMP-dependent protein kinase catalytic subunit PRKX (Homo sapiens) (UniProt P51817); assay: Selectivity interaction (KinomeScan (DiscoverX)) EUB0000655a PRKX; settings: at 10 µM
# T2 sequence (whole entry): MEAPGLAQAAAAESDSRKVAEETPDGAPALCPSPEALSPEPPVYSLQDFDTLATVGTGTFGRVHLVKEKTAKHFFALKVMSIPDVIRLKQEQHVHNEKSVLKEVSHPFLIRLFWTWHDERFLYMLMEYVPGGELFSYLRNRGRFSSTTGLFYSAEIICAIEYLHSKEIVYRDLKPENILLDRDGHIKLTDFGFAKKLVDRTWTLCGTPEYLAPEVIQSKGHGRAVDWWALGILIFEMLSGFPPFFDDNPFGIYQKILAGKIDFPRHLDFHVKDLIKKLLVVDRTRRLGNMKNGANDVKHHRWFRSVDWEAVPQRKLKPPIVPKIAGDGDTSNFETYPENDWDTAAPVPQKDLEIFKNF
# [5] = target: Death-associated protein kinase 1 (Homo sapiens, UniProt P53355); assay: Selectivity interaction (Kinase panel (DSF assay)) EUB0001559a DAPK1
# [6] = target: Alpha-1D adrenergic receptor (Homo sapiens) (UniProt P25100); assay: Selectivity interaction (GPCR panel (PDSP screen)) EUB0001079a ADRA1D; settings: at 10 µM
# [7] = target: Dual specificity protein kinase CLK4 (Homo sapiens, UniProt Q9HAZ1); assay: Selectivity interaction (KinomeScan (DiscoverX)) EUB0001079a CLK4; settings: at 1 µM
# [8] = target: Vasopressin V1a receptor (Homo sapiens) (UniProt P37288); assay: Selectivity interaction (Panel of kinases, GPCRs, ion channels and transporters (enzymatic assay)) EUB0000223bCl AVPR1A
# [9] = target: Serine/threonine-protein kinase PAK 4 (Homo sapiens, UniProt O96013); assay: Selectivity interaction (KinomeScan (DiscoverX)) EUB0000045b PAK4
# [10] = target: Phosphatidylinositol 4-kinase alpha (Homo sapiens, UniProt P42356); assay: Selectivity interaction (Kinase panel (literature)) EUB0001199aCl PI4KA; settings: at 1 µM
# [11] = target: T3, Serine/threonine-protein kinase haspin (Homo sapiens) (UniProt Q8TF76); assay: Selectivity interaction (Ambit KINOMEscan and KiNATiv profiling in Jurkat cells) EUB0000090b GSG2; assay type: cell-based; settings: at 1 µM
# T3 sequence (whole entry): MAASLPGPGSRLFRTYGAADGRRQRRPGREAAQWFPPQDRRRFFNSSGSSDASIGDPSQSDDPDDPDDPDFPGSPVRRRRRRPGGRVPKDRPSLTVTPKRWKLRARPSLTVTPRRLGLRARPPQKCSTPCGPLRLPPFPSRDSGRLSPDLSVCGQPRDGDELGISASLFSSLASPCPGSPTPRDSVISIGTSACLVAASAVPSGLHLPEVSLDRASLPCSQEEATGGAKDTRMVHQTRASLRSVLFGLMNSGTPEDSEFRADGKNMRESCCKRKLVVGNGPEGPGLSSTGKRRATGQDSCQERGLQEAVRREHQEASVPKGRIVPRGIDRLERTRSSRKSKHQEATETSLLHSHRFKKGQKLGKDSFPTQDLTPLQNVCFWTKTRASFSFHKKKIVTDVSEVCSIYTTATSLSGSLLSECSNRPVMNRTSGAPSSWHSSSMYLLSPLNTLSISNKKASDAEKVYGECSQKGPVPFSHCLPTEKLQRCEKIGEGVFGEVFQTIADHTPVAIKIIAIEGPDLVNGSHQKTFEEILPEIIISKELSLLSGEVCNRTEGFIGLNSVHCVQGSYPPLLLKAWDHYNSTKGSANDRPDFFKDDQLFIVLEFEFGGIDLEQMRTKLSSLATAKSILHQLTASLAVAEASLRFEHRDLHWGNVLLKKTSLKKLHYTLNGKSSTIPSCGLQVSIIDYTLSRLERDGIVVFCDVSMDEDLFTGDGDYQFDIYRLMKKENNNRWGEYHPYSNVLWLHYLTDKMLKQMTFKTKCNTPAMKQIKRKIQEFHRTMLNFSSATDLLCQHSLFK
# [12] = target: Serine/threonine-protein kinase pim-1 (Homo sapiens, UniProt P11309); assay: Selectivity interaction (Kinase screening (Nanosyn)) EUB0000604a PIM1
# [13] = target: Ribosomal protein S6 kinase alpha-2 (Homo sapiens) (UniProt Q15349); assay: Selectivity interaction (ActivX KiNativ screen (ex vivo kinase selectivity in human PBMCs)) EUB0001619a RPS6KA2; assay type: cell-based; settings: PBMC, at 1 µM
# Ribosomal protein S6 kinase alpha-2 (Homo sapiens), sequence (Q15349 whole entry): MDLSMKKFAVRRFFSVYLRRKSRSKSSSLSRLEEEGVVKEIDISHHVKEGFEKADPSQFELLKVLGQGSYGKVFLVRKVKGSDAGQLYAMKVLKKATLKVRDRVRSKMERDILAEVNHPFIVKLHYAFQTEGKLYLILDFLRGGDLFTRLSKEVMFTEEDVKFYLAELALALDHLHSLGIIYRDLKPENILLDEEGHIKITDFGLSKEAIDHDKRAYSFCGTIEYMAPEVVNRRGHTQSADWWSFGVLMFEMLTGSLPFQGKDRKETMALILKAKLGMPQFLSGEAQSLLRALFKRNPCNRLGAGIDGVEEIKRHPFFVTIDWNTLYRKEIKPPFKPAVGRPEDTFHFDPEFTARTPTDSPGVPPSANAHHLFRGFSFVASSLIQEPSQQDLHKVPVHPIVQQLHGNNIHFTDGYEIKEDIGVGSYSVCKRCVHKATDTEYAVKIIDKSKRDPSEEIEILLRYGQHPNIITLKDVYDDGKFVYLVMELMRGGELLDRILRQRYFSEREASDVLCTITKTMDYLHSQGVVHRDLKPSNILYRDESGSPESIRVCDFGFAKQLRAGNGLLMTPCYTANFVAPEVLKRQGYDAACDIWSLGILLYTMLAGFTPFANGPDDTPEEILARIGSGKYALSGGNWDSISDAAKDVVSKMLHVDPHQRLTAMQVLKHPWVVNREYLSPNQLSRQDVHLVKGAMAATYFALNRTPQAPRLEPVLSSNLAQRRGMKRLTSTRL
# Serine/threonine-protein kinase PAK 4, sequence (O96013 whole entry, looked up): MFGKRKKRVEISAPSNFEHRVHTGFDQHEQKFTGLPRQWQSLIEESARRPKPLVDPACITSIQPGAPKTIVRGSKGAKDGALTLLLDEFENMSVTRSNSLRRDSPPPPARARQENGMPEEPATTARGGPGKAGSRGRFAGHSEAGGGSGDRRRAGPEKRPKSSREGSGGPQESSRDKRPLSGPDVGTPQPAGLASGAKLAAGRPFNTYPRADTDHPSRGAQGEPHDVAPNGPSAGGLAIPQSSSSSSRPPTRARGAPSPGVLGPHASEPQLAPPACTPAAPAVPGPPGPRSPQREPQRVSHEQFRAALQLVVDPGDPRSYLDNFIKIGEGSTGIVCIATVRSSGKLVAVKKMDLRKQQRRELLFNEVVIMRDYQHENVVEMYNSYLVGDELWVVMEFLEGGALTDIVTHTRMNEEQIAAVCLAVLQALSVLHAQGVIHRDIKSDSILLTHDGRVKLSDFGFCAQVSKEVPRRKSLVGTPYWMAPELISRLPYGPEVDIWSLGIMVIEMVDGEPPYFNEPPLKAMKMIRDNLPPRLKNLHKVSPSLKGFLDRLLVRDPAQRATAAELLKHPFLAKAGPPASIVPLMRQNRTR
# Casein kinase I isoform epsilon, sequence (P49674 whole entry, looked up, canonical isoform): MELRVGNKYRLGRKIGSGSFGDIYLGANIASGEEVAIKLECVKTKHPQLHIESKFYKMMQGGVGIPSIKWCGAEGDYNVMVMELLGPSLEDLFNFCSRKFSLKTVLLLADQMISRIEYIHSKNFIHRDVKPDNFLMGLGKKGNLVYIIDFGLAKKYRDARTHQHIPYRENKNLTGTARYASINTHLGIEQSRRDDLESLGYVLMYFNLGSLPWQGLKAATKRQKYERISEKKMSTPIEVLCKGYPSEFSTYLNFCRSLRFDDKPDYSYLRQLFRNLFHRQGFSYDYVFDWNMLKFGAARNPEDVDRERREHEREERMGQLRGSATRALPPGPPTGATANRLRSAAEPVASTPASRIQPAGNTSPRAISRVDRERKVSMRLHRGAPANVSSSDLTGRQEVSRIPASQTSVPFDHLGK
# Phosphatidylinositol 4-kinase alpha, sequence (P42356 whole entry, looked up): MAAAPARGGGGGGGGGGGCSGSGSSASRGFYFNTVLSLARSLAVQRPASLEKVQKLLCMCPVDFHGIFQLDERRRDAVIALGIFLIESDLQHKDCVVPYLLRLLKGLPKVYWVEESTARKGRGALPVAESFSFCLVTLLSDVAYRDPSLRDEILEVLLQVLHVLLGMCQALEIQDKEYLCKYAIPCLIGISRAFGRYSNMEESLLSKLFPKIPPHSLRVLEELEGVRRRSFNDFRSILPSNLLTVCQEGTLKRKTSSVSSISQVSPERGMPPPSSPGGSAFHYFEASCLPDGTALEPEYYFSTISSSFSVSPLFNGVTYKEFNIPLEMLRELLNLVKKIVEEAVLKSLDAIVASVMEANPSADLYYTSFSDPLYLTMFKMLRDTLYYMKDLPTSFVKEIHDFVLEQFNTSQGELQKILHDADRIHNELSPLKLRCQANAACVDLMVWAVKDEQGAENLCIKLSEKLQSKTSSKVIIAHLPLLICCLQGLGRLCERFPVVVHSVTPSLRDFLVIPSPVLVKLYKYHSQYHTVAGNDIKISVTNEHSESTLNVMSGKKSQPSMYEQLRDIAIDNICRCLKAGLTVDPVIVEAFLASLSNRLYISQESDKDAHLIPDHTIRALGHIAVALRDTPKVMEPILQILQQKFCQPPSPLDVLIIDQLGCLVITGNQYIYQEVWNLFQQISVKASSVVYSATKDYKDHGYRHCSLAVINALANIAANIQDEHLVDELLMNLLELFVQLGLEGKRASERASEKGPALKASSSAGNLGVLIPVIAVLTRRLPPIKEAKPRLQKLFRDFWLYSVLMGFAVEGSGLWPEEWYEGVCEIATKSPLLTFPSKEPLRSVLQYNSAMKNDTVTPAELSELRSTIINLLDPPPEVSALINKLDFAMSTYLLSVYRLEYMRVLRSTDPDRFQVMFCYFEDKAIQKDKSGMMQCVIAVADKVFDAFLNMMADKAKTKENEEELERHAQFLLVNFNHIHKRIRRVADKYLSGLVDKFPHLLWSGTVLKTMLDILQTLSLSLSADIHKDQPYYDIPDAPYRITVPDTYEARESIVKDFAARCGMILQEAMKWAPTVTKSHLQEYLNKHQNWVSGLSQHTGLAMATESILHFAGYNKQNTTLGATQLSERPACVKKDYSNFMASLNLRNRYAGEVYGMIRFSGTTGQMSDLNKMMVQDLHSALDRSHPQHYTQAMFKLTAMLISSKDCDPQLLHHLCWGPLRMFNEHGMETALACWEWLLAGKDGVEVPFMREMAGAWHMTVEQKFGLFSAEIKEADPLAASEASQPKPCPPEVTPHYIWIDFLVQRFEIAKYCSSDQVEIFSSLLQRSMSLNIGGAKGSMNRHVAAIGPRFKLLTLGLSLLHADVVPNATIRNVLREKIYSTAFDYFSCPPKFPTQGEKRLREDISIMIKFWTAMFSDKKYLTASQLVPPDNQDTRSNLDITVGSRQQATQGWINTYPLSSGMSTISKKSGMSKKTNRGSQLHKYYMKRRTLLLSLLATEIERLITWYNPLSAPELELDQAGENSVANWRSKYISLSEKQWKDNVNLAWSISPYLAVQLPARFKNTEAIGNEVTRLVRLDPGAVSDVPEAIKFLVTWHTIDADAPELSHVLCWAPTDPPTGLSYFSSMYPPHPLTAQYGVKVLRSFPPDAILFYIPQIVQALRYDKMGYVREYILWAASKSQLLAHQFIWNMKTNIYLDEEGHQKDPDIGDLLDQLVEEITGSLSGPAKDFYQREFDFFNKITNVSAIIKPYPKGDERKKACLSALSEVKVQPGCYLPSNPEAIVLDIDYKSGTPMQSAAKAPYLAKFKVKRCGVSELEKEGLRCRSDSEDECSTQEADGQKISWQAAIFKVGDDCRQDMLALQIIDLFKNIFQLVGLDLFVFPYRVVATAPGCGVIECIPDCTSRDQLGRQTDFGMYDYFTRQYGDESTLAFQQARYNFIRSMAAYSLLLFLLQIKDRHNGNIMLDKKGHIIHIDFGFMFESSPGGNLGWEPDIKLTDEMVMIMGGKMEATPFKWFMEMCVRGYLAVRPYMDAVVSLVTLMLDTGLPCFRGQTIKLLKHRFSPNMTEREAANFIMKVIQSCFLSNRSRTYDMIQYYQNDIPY
# Serine/threonine-protein kinase pim-1, sequence (P11309 whole entry, looked up): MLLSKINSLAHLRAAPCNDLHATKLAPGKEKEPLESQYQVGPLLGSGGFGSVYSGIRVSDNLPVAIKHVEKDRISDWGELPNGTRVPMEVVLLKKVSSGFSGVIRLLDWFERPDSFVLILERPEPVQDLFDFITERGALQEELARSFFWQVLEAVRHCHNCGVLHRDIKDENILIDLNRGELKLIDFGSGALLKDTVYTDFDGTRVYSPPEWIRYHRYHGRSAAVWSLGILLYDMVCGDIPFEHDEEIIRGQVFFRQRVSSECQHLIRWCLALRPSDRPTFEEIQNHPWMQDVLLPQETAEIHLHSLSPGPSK
# Alpha-1D adrenergic receptor (Homo sapiens), sequence (P25100 whole entry): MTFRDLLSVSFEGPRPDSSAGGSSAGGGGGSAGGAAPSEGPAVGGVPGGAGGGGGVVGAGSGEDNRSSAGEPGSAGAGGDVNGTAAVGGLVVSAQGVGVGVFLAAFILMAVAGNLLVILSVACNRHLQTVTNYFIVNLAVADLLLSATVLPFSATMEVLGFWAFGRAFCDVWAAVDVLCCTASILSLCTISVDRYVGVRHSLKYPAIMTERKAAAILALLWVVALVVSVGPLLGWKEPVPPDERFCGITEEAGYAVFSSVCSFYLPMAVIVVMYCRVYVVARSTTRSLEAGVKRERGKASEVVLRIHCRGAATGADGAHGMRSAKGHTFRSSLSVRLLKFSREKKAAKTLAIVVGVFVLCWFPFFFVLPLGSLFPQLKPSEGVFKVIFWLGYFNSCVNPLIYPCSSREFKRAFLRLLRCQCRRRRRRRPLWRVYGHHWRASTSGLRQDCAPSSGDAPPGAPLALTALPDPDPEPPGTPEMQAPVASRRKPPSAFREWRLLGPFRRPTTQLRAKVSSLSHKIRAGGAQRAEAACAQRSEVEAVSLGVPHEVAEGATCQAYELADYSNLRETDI
smiles,measurement,setting,value
CCC(=O)N1CCN(c2ccc(-n3c(=O)ccc4cnc5ccc(-c6cnc7ccccc7c6)cc5c43)cc2C(F)(F)F)CC1,% of control,[1],59%
same,% of control,[2],100%
Cc1ccc(-c2ccc3c(ccc4sc5c(c43)NC[C@@H](C)NC5=O)n2)cn1,% of inhibition,[3],31%
CN(C)CCOc1ccc(-c2nc(-c3ccncc3)c(-c3ccc4c(c3)CC/C4=N\O)[nH]2)cc1,% of control,[4],94%
CN(C(=O)c1cnn2cccnc12)c1cc2c(cc1N1CCOCC1)C(=O)N(C[C@@H](F)C(C)(C)O)C2,dTM,[5],-0.3 K
Nc1cnc(N2CCc3cc(S(=O)(=O)Nc4c(F)cc(Cl)cc4F)cc(N4CCCC4=O)c32)nc1 [TP-020n],% of inhibition,[6],-2.31%
same,% of control,[7],89%
COc1cc(C(=O)N2CC[C@@H](O)[C@@H](N)C2)cc2nc(-c3cc4ccccc4n3CC3CC3)n(C)c12,pXC50,[8],4.6 M
C=CC(=O)Nc1cc(-n2c(=O)ccc3cnc4ccc(-c5ccc(NS(C)(=O)=O)cc5)cc4c32)ccc1C,% of control,[9]; at 1 µM,100%
same,% of control,[9]; at 10 µM,100%
CN1Cc2nccc(-c3cn(C)nc3-c3ccc(F)cc3)c2C1=O,% of inhibition,[10],-13%
CN(C)C/C=C/C(=O)Nc1ccc(C(=O)N2CCCC(Nc3ncc(Cl)c(-c4c[nH]c5ccccc45)n3)C2)cc1 (centres undefined),% of control,[11],73%
Cc1cnc(Nc2ccc(F)cc2Cl)nc1-c1c[nH]c(C(=O)N[C@H](CO)c2cccc(Cl)c2)c1,% of inhibition,[12],0%
N#Cc1cccc(-c2c[nH]c3ncnc(N4CCOCC4)c23)c1,% of inhibition,[13],13%
